# Measured values taken from patent US12612442B2, “G12-specific designer receptor exclusively activated by designer drugs” (CELL NETWORKS GMBH, priority 2019, dated 2026).
# Legend:
# RhoA [1] = assay: NanoBiT-RhoA assay in PC-3 cells (endogenously expressed GPCRs); type: cell-based, human; settings: thrombin 1000 U L^−1
# Method: (§4) The transfected cells were harvested, seeded in a white 96-well plate and loaded with 10 μM CTZ in the same manner described in the NanoBiT-G-protein dissociation assay. After measuring an initial luminescent signal, test compounds were added to the cells. Then, 3-5 min later, luminescent signals were measured and fold-change values were plotted as described above.
# RhoA [2] = assay: NanoBiT-RhoA assay in MDA-MB-231 cells (endogenously expressed GPCRs); type: cell-based, human; settings: thrombin 1000 U L^−1
# Method: as §4
# RhoA [3] = assay: Active RhoA pulldown assay in HN12 cells; type: cell-based; settings: 10 μM CP-55940, 1 μM Ang II, 5 min
# Method: (§1) HN12 cells and Cal27 cells were cultured to 50% confluency, and then serum starved overnight. To induce RhoA activation, cells were treated with 5 μM LPA, 1 μM Ang II, or 10 μM CP-55940 for 5 min. Active RhoA levels were measured using the RhoA Pull-Down Activation Assay Biochem Kit (bead pull-down format; Cytoskeleton) following the manufacturer instruction using a modified lysis buffer (50 mM Tris-HCl (pH 7.2), 500 mM NaCl, 10 mM MgCl2, 0.1% SDS, 1% NP-40). Briefly, after stimulation, samples were lysed and protein concentrations were quantified using DC Protein Assay (BioRad). Samples were adjusted to the same concentration with lysis buffer and 500 μg of each protein lysate was added to 15 μL GST-tagged Rhotekin-RBD bound to Sepharose beads. Samples were incubated while rocking at 4° C. for 1.5 h. Beads were then washed, eluted in Laemmli sample buffer, and analyzed by western blot using a mouse monoclonal anti-RhoA antibody (Cytoskeleton).
# CNR1 = CNR1 (Homo sapiens, UniProt P21554); settings: HEK293 cells expressing CNR1
# Sequence of CNR1 (P21554 whole entry): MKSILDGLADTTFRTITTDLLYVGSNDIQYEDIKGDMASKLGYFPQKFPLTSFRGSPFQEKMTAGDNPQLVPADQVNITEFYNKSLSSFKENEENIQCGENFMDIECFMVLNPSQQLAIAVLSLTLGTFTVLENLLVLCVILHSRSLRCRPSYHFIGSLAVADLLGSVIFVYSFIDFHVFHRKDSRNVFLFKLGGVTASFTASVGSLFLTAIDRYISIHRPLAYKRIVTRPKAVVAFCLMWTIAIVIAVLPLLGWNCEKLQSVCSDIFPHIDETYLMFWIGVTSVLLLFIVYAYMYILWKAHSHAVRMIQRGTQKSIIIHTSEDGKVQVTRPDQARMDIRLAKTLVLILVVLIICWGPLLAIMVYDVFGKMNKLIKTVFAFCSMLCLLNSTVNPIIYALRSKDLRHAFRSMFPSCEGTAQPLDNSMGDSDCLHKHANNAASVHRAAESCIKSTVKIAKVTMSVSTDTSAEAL
# Method: as §4
# RhoA [4] = assay: Active RhoA pulldown assay in Cal27 cells; type: cell-based; settings: 10 μM CP-55940, 1 μM Ang II, 5 min
# Method: as §1
# M3D-GPR183/ICL3 [5] = target: T1, M3D-GPR183/ICL3 (Homo sapiens, UniProt P20309, A239G/DEL264-389/DEL400-485/E393L/E394T/G397S/K260R/L396K/M398G/R261T/T262A/V391N/Y149C); assay: NanoBiT-G-protein dissociation assay, M3D-GPR183/ICL3; type: cell-based
# T1 construct: expressed in transfected cells; host or cells: parental HEK293 (NanoBiT-G-protein assay); ΔGq HEK293 (TGFα shedding assay)
# T1 sequence (P20309 with tags, fused parts or gaps Y149C/A239G/K260R/R261T/T262A/DEL264-389/V391N/E393L/E394T/L396K/G397S/M398G/DEL400-485): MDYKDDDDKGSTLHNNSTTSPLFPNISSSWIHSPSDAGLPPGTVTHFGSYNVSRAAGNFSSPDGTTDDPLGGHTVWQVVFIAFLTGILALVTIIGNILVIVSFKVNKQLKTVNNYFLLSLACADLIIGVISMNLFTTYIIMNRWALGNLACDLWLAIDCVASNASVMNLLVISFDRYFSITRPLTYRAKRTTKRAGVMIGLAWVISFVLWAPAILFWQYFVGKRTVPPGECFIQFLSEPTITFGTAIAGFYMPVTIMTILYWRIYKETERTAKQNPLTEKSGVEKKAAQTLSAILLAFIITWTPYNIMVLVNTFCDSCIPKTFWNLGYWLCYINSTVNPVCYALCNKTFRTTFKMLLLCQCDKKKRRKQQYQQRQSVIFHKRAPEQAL
# Method: (§2) Plasmid transfection was performed in a 6-well plate with a mixture of 100 ng Gα-Lg-encoding plasmid, 500 ng Sm-Gβ-encoding plasmid, 500 ng untagged Gγ2-encoding plasmid, 200 ng GPCR-encoding plasmid with or without 100 ng RIC8-encoding plasmid (per well, hereafter). Unless otherwise stated, the combination of following plasmid mixtures was used: Gαs-Lg, Sm-Gβ1, Gγ2 and RIC8B for NanoBiT-Gs; Gαi1-Lg, Sm-Gβ5 and Gγ2 for NanoBiT-Gi1; Gαi2-Lg, Sm-Gβ3 and Gγ2 for NanoBiT-Gi2; Gαi3-Lg, Sm-Gβ3 and Gγ2 for NanoBiT-Gi3; Gαo-Lg, Sm-Gβ1 and Gγ2 for NanoBiT-Go; Gαq-Lg, Sm-Gβ1, Gγ2 and RIC8A for NanoBiT-Gq; Gα12-Lg, Sm-Gβ1, Gγ2 and RIC8A for NanoBiT-G12; Gα13-Lg, Sm-Gβ1, Gγ2 and RIC8A for NanoBiT-G13. After 1-day culture, the transfected cells were harvested with 1 mL of 0.53 mM EDTA-containing Dulbecco's PBS (D-PBS), followed by addition of 2 mL the HEPES-containing HBSS. The cells were pelleted by centrifugation at 190 g for 5 min and resuspended in 2 mL of the 0.01% BSA- and 5 mM HEPES (pH 7.4)-containing HBSS (assay buffer). The cell suspension was seeded in a 96-well culture white plate (Greiner Bio-One) at a volume of 80 μl (per well hereafter) and loaded with 20 μl of 50 μM coelenterazine (Carbosynth) solution diluted in the assay buffer. After 2-h incubation with coelenterazine at room temperature, background luminescent signals were measured using a luminescent microplate reader (SpectraMax L, Molecular Devices). The inventors note that incubation time with coelenterazine can be shortened, but an effect of baseline drift should be taken into account (FIG. 14C-E). Test compound (6×, diluted in the assay buffer) was manually added to the cells (20 μl). Luminescent signals were measured 3-5 min after ligand addition and divided by the initial count. The ligand-induced signal ratio was normalized to that treated with vehicle. The consequent fold-change values were fitted to a four-parameter sigmoidal concentration-response described above.
# M3D-LTB4R2/ICL3 = assay: NanoBiT-G-protein dissociation assay, M3D-LTB4R2/ICL3; type: cell-based, human; settings: 10 μM CNO; parental HEK293 cells
# Method: as §2, with “The cell suspension was seeded in a 96-well culture white plate (Greiner Bio-One) at a volume of 80 μl (per well hereafter) and loaded with 20 μl of 50 μM coelenterazine (Carbosynth) solution diluted in the assay buffer.” left out, “The inventors note that incubation time with coelenterazine can be shortened, but an effect of baseline drift should be taken into account (FIG. 14C-E). Test compound (6×, diluted in the assay buffer) was manually added to the cells (20 μl).” left out, “The ligand-induced signal ratio was normalized to that treated with vehicle. The consequent fold-change values were fitted to a four-parameter sigmoidal concentration-response described above.” left out
# M3D-NMBR/ICL3 = assay: NanoBiT-G-protein dissociation assay, M3D-NMBR/ICL3; type: cell-based, human; settings: 10 μM CNO; parental HEK293 cells
# Method: as §2, with “The cell suspension was seeded in a 96-well culture white plate (Greiner Bio-One) at a volume of 80 μl (per well hereafter) and loaded with 20 μl of 50 μM coelenterazine (Carbosynth) solution diluted in the assay buffer.” left out, “The inventors note that incubation time with coelenterazine can be shortened, but an effect of baseline drift should be taken into account (FIG. 14C-E). Test compound (6×, diluted in the assay buffer) was manually added to the cells (20 μl).” left out, “The ligand-induced signal ratio was normalized to that treated with vehicle. The consequent fold-change values were fitted to a four-parameter sigmoidal concentration-response described above.” left out
# M3D-GPR183/ICL3 [6] = target: T1, M3D-GPR183/ICL3; assay: TGFα shedding assay in ΔGq HEK293 cells, M3D-GPR183/ICL3; type: cell-based; settings: 10 μM CNO
# Method: (§3) The TGFα shedding assay was performed as described previously (Inoue et al., 2012) with minor modifications. Plasmid transfection was performed in a 6-well plate with a mixture of 500 ng AP-TGFα-encoding plasmid, 200 ng GPCR-encoding plasmid with or without 100 ng Gα-encoding plasmid (per well, hereafter). After 1-day culture, the transfected cells were harvested by trypsinization, pelleted by centrifugation at 190 g for 5 min and washed once with Hank's Balanced Salt Solution (HBSS) containing 5 mM HEPES (pH 7.4). After centrifugation, the cells were resuspended in 6 ml of the HEPES-containing HBSS. […] The cell suspension was seeded in a 96-well culture plate (cell plate) at a volume of 90 μl (per well hereafter) and incubated for 30 min in a 5% CO2 incubator at 37° C. The cells were treated with a GPCR ligand (10×, diluted in HBSS containing 5 mM HEPES (pH 7.4) and 0.01% (w/v) bovine serum albumin (BSA, fatty acid-free and protease-free grade; Serva)). After spinning the cell plates, conditioned media (80 μl) was transferred to an empty 96-well plate (conditioned media (CM) plate). […] Absorbance at 405 nm (Ab405) of the plates was measured, using a microplate reader (SpectraMax 340 PC384, Molecular Devices), before and after 1-h or 2-h incubation at room temperature. Ligand-induced AP-TGFα release was calculated as described previously. […]
# M3D-GPR132/ICL3 [7] = target: T2, M3D-GPR132/ICL3 (Homo sapiens, UniProt P20309, A239G/DEL260-297/DEL301-447/DEL453-484/K449L/K485Q/T451A/Y149C); assay: NanoBiT-G-protein dissociation assay, M3D-GPR132/ICL3; type: cell-based
# T2 construct: expressed in transfected cells; host or cells: parental HEK293 (NanoBiT-G-protein assay); ΔGq HEK293 (TGFα shedding assay)
# T2 sequence (P20309 with tags, fused parts or gaps Y149C/A239G/DEL260-297/DEL301-447/K449L/T451A/DEL453-484/K485Q): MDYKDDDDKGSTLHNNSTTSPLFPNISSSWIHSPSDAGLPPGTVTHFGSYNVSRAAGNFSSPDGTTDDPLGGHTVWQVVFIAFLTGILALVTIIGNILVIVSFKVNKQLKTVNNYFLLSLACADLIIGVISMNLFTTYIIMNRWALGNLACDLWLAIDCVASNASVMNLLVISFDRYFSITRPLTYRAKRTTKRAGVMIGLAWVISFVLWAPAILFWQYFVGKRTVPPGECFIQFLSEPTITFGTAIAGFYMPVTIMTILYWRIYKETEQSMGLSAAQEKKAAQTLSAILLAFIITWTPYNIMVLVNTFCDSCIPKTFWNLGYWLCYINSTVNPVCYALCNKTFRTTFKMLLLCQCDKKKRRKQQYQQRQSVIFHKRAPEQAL
# Method: as §2
# [8] = system: DREADDs (M3D, M4D, M3D-Gs, M3D-GPR183/ICL3, M3D-GPR132/ICL3); assay: NanoBiT-G-protein dissociation assay, DREADD panel with titrated CNO; type: cell-based, human; settings: all of the DREADDs, HEK293 cells, read-out: EC50 values of CNO for each primary-coupling G-protein
# Method: as §2, with “The cell suspension was seeded in a 96-well culture white plate (Greiner Bio-One) at a volume of 80 μl (per well hereafter) and loaded with 20 μl of 50 μM coelenterazine (Carbosynth) solution diluted in the assay buffer.” left out, “The inventors note that incubation time with coelenterazine can be shortened, but an effect of baseline drift should be taken into account (FIG. 14C-E). Test compound (6×, diluted in the assay buffer) was manually added to the cells (20 μl).” left out, “The ligand-induced signal ratio was normalized to that treated with vehicle. The consequent fold-change values were fitted to a four-parameter sigmoidal concentration-response described above.” left out
# M3D-GPR132/ICL3 [9] = target: T2, M3D-GPR132/ICL3; assay: TGFα shedding assay in ΔGq HEK293 cells, M3D-GPR132/ICL3; type: cell-based; settings: 10 μM CNO
# Method: as §3
# M3D-P2RY10/ICL3 = assay: NanoBiT-G-protein dissociation assay, M3D-P2RY10/ICL3; type: cell-based, human; settings: 10 μM CNO; parental HEK293 cells
# Method: as §2, with “The cell suspension was seeded in a 96-well culture white plate (Greiner Bio-One) at a volume of 80 μl (per well hereafter) and loaded with 20 μl of 50 μM coelenterazine (Carbosynth) solution diluted in the assay buffer.” left out, “The inventors note that incubation time with coelenterazine can be shortened, but an effect of baseline drift should be taken into account (FIG. 14C-E). Test compound (6×, diluted in the assay buffer) was manually added to the cells (20 μl).” left out, “The ligand-induced signal ratio was normalized to that treated with vehicle. The consequent fold-change values were fitted to a four-parameter sigmoidal concentration-response described above.” left out
# [10] = 10 μM CNO, parental HEK293 cells
# [11] = titrated CNO, NanoBiT-Gs, Go, Gq, G12 compared
molecule,measurement,setting,value
thrombin,RhoA activation,RhoA [1],activated RhoA
same,RhoA activation,RhoA [2],activated RhoA
CCCCCCC(C)(C)c1ccc([C@@H]2C[C@H](O)CC[C@H]2CCCO)c(O)c1 [CP-55940],RhoA activation (GTP-bound RhoA pulldown),RhoA [3],induced activation of RhoA
same,RhoA activation,CNR1,RhoA activation occurred
same,RhoA activation (GTP-bound RhoA pulldown),RhoA [4],induced activation of RhoA
"C[N+]1([O-])CCN(C2=Nc3cc(Cl)ccc3Nc3ccccc32)CC1 [CNO, clozapine-N-oxide]",NanoBiT-G13 dissociation signal,M3D-GPR183/ICL3 [5]; 10 μM CNO,lack of G13 activation
same,G12 and Go coupling (NanoBiT-G12 / NanoBiT-Go screening),M3D-GPR183/ICL3 [5]; [10],coupled to G12 and not to Go
same,G12 dissociation signal,M3D-GPR183/ICL3 [5]; [11],robust G12 dissociation signal
same,G12 and Go coupling (NanoBiT-G12 / NanoBiT-Go screening),M3D-LTB4R2/ICL3,induced both G12 and Go coupling with a higher Go dissociation signal
same,G12 and Go coupling (NanoBiT-G12 / NanoBiT-Go screening),M3D-NMBR/ICL3,coupled to G12 and not to Go
same,G12 signaling (TGFα shedding response),M3D-GPR183/ICL3 [6],significant G12 signaling
same,NanoBiT-G13 dissociation signal,M3D-GPR132/ICL3 [7]; 10 μM CNO,lack of G13 activation
same,G12 and Go coupling (NanoBiT-G12 / NanoBiT-Go screening),M3D-GPR132/ICL3 [7]; [10],coupled to G12 and not to Go
same,G12 dissociation signal,M3D-GPR132/ICL3 [7]; [11],robust G12 dissociation signal
same,EC50,[8],100 to 1000 nM
same,G12 signaling (TGFα shedding response),M3D-GPR132/ICL3 [9],significant G12 signaling
same,G12 and Go coupling (NanoBiT-G12 / NanoBiT-Go screening),M3D-P2RY10/ICL3,coupled to G12 and not to Go
"angiotensin II (DRVYIHPF; Angiotensin-2; UniProt P01019 25-32, looked up) [Ang II, endogenous ligand of AGTR1]",RhoA activation (GTP-bound RhoA pulldown),RhoA [3],induced activation of RhoA
same,RhoA activation (GTP-bound RhoA pulldown),RhoA [4],induced activation of RhoA
